Test results as given in article PMC3714282, “Pharmacometabolomics of Response to Sertraline and to Placebo in Major Depressive Disorder – Possible Role for Methoxyindole Pathway” (PLoS ONE, 2013).

Legend:
outpatients with MDD = assay: Randomized double-blind 4-week trial, response by 17-item Hamilton Rating Scale for Depression (HAMD17); assay type: in vivo, human
Source text: The 75 patients in this report were a subset of the 165 patients who entered a randomized, double-blind, flexible dosing, placebo-controlled study performed at 12 clinical sites. […] Subjects selected for this study were those with serum samples and HAMD17 scores available at baseline and 1 week and at 4 weeks (+/−1 week) after treatment. Finally, the subset of participants in this study largely overlaps with those used in our previous study.
Study participants were outpatients, 18–65 years of age, from various clinical sites across the United States. […] A complete description of the inclusion and exclusion used in this study can be found in Table S1. The study protocol was developed in accordance with the principles of the Declaration of Helsinki. All patients provided written informed consent. The study was sponsored and monitored by Pfizer, Inc. Each site's institutional review board approved and oversaw the study. The primary outcome measure was the HAMD17, used to assess depressive symptom severity. Measures were gathered at baseline, and weeks 1 and 4 of treatment at the patient's visits. Serum samples were collected using standard protocol at baseline, week 1 and week 4 of treatment at the clinic visits. Whole blood was collected in serum collection tubes and inverted 5–8 times. Serum samples were allowed to clot at room temperature for 60 minutes and then centrifuged at 1,300×g for 15 minutes. Following centrifugation supernatant was frozen at −80°C until analysis.
(§1) Signatures of response to sertraline and placebo were identified by using paired t-tests to compare week 4 metabolite levels to baseline metabolite levels in the responders and non-responders to therapy. […] These analyses were also performed to evaluate changes in ratios of individual metabolites within (e.g., 5-HT/5-HTP) and between branches of tryptophan pathway (e.g., KYN/MEL).

[1] = test system: 5-Methoxytryptamine (5-MTPM); assay: GCTOF-MS measurement of serum 5-Methoxytryptamine (5-MTPM): change from baseline at week 1 and week 4; assay type: in vivo, human; conditions: for Change in 5-MTPM levels / Change 5-MTPM: serum; for Change in 5-MTPM levels: four weeks; for Change 5-MTPM: log-transformed concentration
Description: Samples were analyzed using a liquid chromatography electrochemical array (LCECA) platform that has been extensively validated and used in our prior studies in neurodegenerative and psychiatric disorders [30]–[34]. The method includes multiple compounds from the tyrosine, tryptophan, sulfur amino acids and purine pathways, and markers of oxidative stress and protection (for the list of metabolites and abbreviations see Table 1). Levels of 5-Methoxytryptamine (5-MTPM) were measured using a gas chromatography time-of-flight-mass spectrometry (GCTOF-MS) platform. Samples were prepared for analysis as previously described. During the sample preparation, pools were created from equal volumes of subaliquots of all samples. Concentrations of metabolites in the individual samples were expressed as a percentage of the concentration of those metabolites in the averaged pool.
Data preprocessing: We first removed the metabolites that have more than 40% missing values. […] Principal components analysis (PCA; SIMCA-P+12.0) was used to identify outliers. The analysis was performed for each time point. […] Subjects with ≥3 standard deviations away from the center of data cloud within two principal components (PC's) scores scatter plot were considered outliers and were removed from further analysis.
These analyses were conducted separately for the sertraline and placebo groups. Between groups t-tests were used to compare baseline to one week and baseline to four week change scores between the sertraline and placebo groups.
as §1

For `CN[C@H]1CC[C@@H](c2ccc(Cl)c(Cl)c2)c2ccccc21` [Sertraline, sertraline], the “APC, average percent change in HAMD17 score” value (outpatients with MDD; Female patients) was “Female: APC= -55%”, the “APC, average percent change in HAMD17 score” value (outpatients with MDD; Non-White patients) was “Non-White: APC= -52%” and the “response rate (responders: ≥50% reduction in HAMD17 scores)” value (outpatients with MDD; after four weeks, 21/35 patients, 50-150 mg/day) was 60%. For the same molecule, the “Change of 5-MTPM (average change of log-transformed concentration)” value ([1]; after four week of treatment, non-responders) was -0.11, the “Change of 5-MTPM (average change of log-transformed concentration)” value ([1]; after four week of treatment, responders) was -0.42 and the “Change of 5-MTPM (average change of log-transformed concentration)” value ([1]; after one week of treatment, non-responders) was -0.052. The “Change in 5-MTPM levels” value ([1]; good responders to sertraline) was “significant decrease”, the “Change in 5-MTPM levels” value ([1]; non-responders to sertraline) was “not significantly changed” and the “Change 5-MTPM” value ([1]; after four weeks, sertraline group) was −0.29. The “Change 5-MTPM” value ([1]; after one week, responders to sertraline) was -0.21.
